Measurements published in the supplement of paper PMC10307832.

What was measured:
Assay in all cases: relative viability (nuclei count vs DMSO), 5 days (fraction); higher = more cells survive
[1] = compound: CN(C)C(=N)NC(=N)N [Metformin] + O=C(c1cc(Cc2n[nH]c(=O)c3ccccc23)ccc1F)N1CCN(C(=O)C2CC2)CC1 [Olaparib] (partner 8 µM)
Method in brief: (§1)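 A single step with final 0.05% Triton X-100, 1% formaldehyde and 1 ug/ml Hoechst fixed the cells and stained nuclei 5 days after treatment. Lung cancer cell lines in 1536-well plates had been treated by pin tool the day after seeding with one drug alone or a fixed anchor-drug dose plus five library-drug doses (not always all listed) in √10 steps, and nuclei were counted on 4× images. Relative viability is the ratio of nuclei in treated wells to nuclei in vehicle wells, taken as the median of duplicate plates.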

[2] = compound: CN(C)C(=N)NC(=N)N [Metformin] + Nc1nc2[nH]cc(CCc3ccc(C(=O)N[C@@H](CCC(=O)O)C(=O)O)cc3)c2c(=O)[nH]1 [Pemetrexed] (partner 0.2 µM)
Method in brief: as §1

[3] = compound: N#CC1(c2ccc(NC(=O)c3cccnc3NCc3ccncc3)cc2)CCCC1 [Apatinib] + O=C(CCCCCCC(=O)Nc1ccccc1)NO [Vorinostat] (partner 1 µM)
Method in brief: as §1

[4] = compound: N#CC1(c2ccc(NC(=O)c3cccnc3NCc3ccncc3)cc2)CCCC1 [Apatinib] + CS(=O)(=O)N1CCN(Cc2cc3nc(-c4cccc5[nH]ncc45)nc(N4CCOCC4)c3s2)CC1 [Pictilisib] (partner 1 µM)
Method in brief: as §1

| Cell Line | relative viability ([1]; first compound 10 µM) | relative viability ([1]; first compound 31.62 µM) | relative viability ([1]; first compound 100 µM) | relative viability ([1]; first compound 316.23 µM) | relative viability ([1]; first compound 1000 µM) | relative viability ([2]; first compound 10 µM) | relative viability ([2]; first compound 31.62 µM) | relative viability ([2]; first compound 100 µM) | relative viability ([2]; first compound 316.23 µM) | relative viability ([2]; first compound 1000 µM) | relative viability ([3]; first compound 0.08 µM) | relative viability ([3]; first compound 0.253 µM) | relative viability ([3]; first compound 0.8 µM) | relative viability ([3]; first compound 2.53 µM) | relative viability ([3]; first compound 8 µM) | relative viability ([4]; first compound 0.08 µM) | relative viability ([4]; first compound 0.253 µM) | relative viability ([4]; first compound 0.8 µM) | relative viability ([4]; first compound 2.53 µM) | relative viability ([4]; first compound 8 µM) |
| --- | --- | --- | --- | --- | --- | --- | --- | --- | --- | --- | --- | --- | --- | --- | --- | --- | --- | --- | --- | --- |
| NCI-H838 | 0.686 | 0.691 | 0.639 | 0.596 | 0.696 | 0.28 | 0.266 | 0.278 | 0.266 | 0.271 | 0.778 | 0.784 | 0.702 | 0.652 | 0.722 | 0.533 | 0.462 | 0.41 | 0.469 | 0.451 |
| HOP-62 | 0.189 | 0.2 | 0.189 | 0.251 | 0.221 | 0.239 | 0.336 | 0.276 | 0.215 | 0.321 | 0.613 | 0.679 | 0.567 | 0.476 | 0.323 | 0.85 | – | 0.816 | 0.758 | 0.466 |
| LC-2-ad | – | 0.537 | 0.562 | 0.505 | 0.587 | – | 0.313 | 0.271 | 0.263 | 0.25 | 0.735 | 0.753 | 0.721 | 0.633 | 0.665 | 0.653 | 0.47 | 0.39 | 0.353 | 0.229 |
| NCI-H2170 | 0.45 | 0.468 | 0.536 | 0.487 | 0.491 | 0.238 | 0.281 | 0.264 | 0.266 | 0.267 | 0.881 | 0.751 | 0.792 | 0.718 | 0.775 | 0.329 | 0.301 | 0.304 | 0.306 | 0.315 |
| LCLC-97TM1 | – | 0.321 | 0.394 | 0.249 | 0.414 | – | 0.198 | 0.198 | 0.171 | 0.188 | 0.911 | 0.758 | 0.695 | 0.577 | 0.337 | 0.221 | 0.147 | 0.216 | 0.316 | 0.143 |
| NCI-H1993 | 1.01 | 1.02 | 1.12 | 0.882 | 0.955 | 0.521 | 0.507 | 0.588 | 0.558 | 0.633 | 0.804 | 0.726 | 0.948 | 0.788 | 0.727 | 0.874 | 0.828 | 0.803 | 0.731 | 0.817 |
| NCI-H520 | 0.276 | 0.264 | 0.276 | 0.274 | 0.259 | 0.656 | 0.593 | 0.688 | 0.657 | 0.689 | 0.77 | 0.736 | 0.708 | 0.672 | 0.452 | 0.281 | 0.268 | 0.301 | 0.314 | 0.275 |
